Data as given in the supplement of paper PMC10307832.

Tests used:
Assay in all cases: relative viability (nuclei count vs DMSO), 5 days (fraction); higher = more cells survive
ABC-1 = tested on: ABC-1
Outline: (§1)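 Values are medians from duplicate plates. Each reflects relative viability, defined as the nuclei count of treated wells over that of vehicle wells. Lung cancer cell lines in 1536-well plates were pin-tool dosed one day after seeding with one drug alone or with a fixed anchor-drug dose plus five library-drug doses (not always all listed) in √10 steps, then fixed, stained and imaged at 4× after 5 days.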

BEN = tested on: BEN
Outline: as §1

CAL-12T = tested on: CAL-12T
Outline: as §1

COR-L 105 = tested on: COR-L 105
Outline: as §1

ChaGo-K-1 = tested on: ChaGo-K-1
Outline: as §1

HARA = tested on: HARA
Outline: as §1

HCC-15 = tested on: HCC-15
Outline: as §1

HCC-366 = tested on: HCC-366
Outline: as §1

HCC-827 = tested on: HCC-827
Outline: as §1

HOP-62 = tested on: HOP-62
Outline: as §1

LC-2-ad = tested on: LC-2-ad
Outline: as §1

LCLC-97TM1 = tested on: LCLC-97TM1
Outline: as §1

LOU-NH91 = tested on: LOU-NH91
Outline: as §1

LU99A = tested on: LU99A
Outline: as §1

NCI-H1395 = tested on: NCI-H1395
Outline: as §1

NCI-H1650 = tested on: NCI-H1650
Outline: as §1

NCI-H1915 = tested on: NCI-H1915
Outline: as §1

NCI-H1944 = tested on: NCI-H1944
Outline: as §1

NCI-H2009 = tested on: NCI-H2009
Outline: as §1

NCI-H2023 = tested on: NCI-H2023
Outline: as §1

NCI-H596 = tested on: NCI-H596
Outline: as §1

NCI-H650 = tested on: NCI-H650
Outline: as §1

NCI-H661 = tested on: NCI-H661
Outline: as §1

With Nc1cccc2c1CN(C1CCC(=O)NC1=O)C2=O (configuration not stated) [Lenalidomide] + COc1cc2c(Oc3ccc(NC(=O)C4(C(=O)Nc5ccc(F)cc5)CC4)cc3F)ccnc2cc1OCCCN1CCOCC1 [Foretinib] (partner 0.25 µM) the relative viability (ABC-1; first compound 0.253 µM) was 0.977, the relative viability (ABC-1; first compound 0.8 µM) was 1.19 and the relative viability (ABC-1; first compound 2.53 µM) was 1.14. For the same compound, the relative viability (ABC-1; first compound 8 µM) was 0.811, the relative viability (BEN; first compound 0.253 µM) was 0.822 and the relative viability (BEN; first compound 0.8 µM) was 0.583. For the same compound, the relative viability (BEN; first compound 2.53 µM) was 0.812, the relative viability (BEN; first compound 8 µM) was 0.409 and the relative viability (CAL-12T; first compound 0.253 µM) was 1.21. It also gave a relative viability (CAL-12T; first compound 0.8 µM) of 1.22, a relative viability (CAL-12T; first compound 2.53 µM) of 1.23 and a relative viability (CAL-12T; first compound 8 µM) of 1.29. It also gave a relative viability (COR-L 105; first compound 0.253 µM) of 0.855, a relative viability (COR-L 105; first compound 0.8 µM) of 0.822 and a relative viability (COR-L 105; first compound 2.53 µM) of 1.12. The relative viability (COR-L 105; first compound 8 µM) was 1.16, the relative viability (ChaGo-K-1; first compound 0.253 µM) was 0.949 and the relative viability (ChaGo-K-1; first compound 0.8 µM) was 0.873. It also gave a relative viability (ChaGo-K-1; first compound 2.53 µM) of 0.975, a relative viability (ChaGo-K-1; first compound 8 µM) of 1.06 and a relative viability (HARA; first compound 0.253 µM) of 0.846. For the same compound, the relative viability (HARA; first compound 2.53 µM) was 0.856, the relative viability (HARA; first compound 8 µM) was 0.955 and the relative viability (HCC-15; first compound 0.253 µM) was 1.03. For the same compound, the relative viability (HCC-15; first compound 0.8 µM) was 1.04, the relative viability (HCC-15; first compound 2.53 µM) was 1.17 and the relative viability (HCC-15; first compound 8 µM) was 1.05. For the same compound, the relative viability (HCC-366; first compound 0.253 µM) was 0.916, the relative viability (HCC-366; first compound 0.8 µM) was 1.04 and the relative viability (HCC-366; first compound 2.53 µM) was 0.915. It also gave a relative viability (HCC-366; first compound 8 µM) of 0.929, a relative viability (HCC-827; first compound 0.253 µM) of 1.03 and a relative viability (HCC-827; first compound 0.8 µM) of 1.05. The relative viability (HCC-827; first compound 2.53 µM) was 1.01, the relative viability (HCC-827; first compound 8 µM) was 1.04 and the relative viability (HOP-62; first compound 0.253 µM) was 0.989. For the same compound, the relative viability (HOP-62; first compound 0.8 µM) was 1.03, the relative viability (HOP-62; first compound 2.53 µM) was 1.28 and the relative viability (HOP-62; first compound 8 µM) was 1.2. It also gave a relative viability (LC-2-ad; first compound 0.253 µM) of 0.92, a relative viability (LC-2-ad; first compound 2.53 µM) of 1.05 and a relative viability (LC-2-ad; first compound 8 µM) of 0.96. The relative viability (LCLC-97TM1; first compound 0.253 µM) was 0.906, the relative viability (LCLC-97TM1; first compound 0.8 µM) was 0.991 and the relative viability (LCLC-97TM1; first compound 2.53 µM) was 1. The relative viability (LCLC-97TM1; first compound 8 µM) was 0.947, the relative viability (LOU-NH91; first compound 0.253 µM) was 0.97 and the relative viability (LOU-NH91; first compound 0.8 µM) was 0.923. It also gave a relative viability (LOU-NH91; first compound 2.53 µM) of 0.942, a relative viability (LOU-NH91; first compound 8 µM) of 0.898 and a relative viability (LU99A; first compound 0.253 µM) of 0.831. It also gave a relative viability (LU99A; first compound 0.8 µM) of 0.789, a relative viability (LU99A; first compound 2.53 µM) of 0.761 and a relative viability (LU99A; first compound 8 µM) of 0.599. It also gave a relative viability (NCI-H1395; first compound 0.253 µM) of 0.958, a relative viability (NCI-H1395; first compound 0.8 µM) of 1.09 and a relative viability (NCI-H1395; first compound 2.53 µM) of 1.11. It also gave a relative viability (NCI-H1395; first compound 8 µM) of 0.822, a relative viability (NCI-H1650; first compound 0.8 µM) of 1.46 and a relative viability (NCI-H1650; first compound 2.53 µM) of 1.18. For the same compound, the relative viability (NCI-H1650; first compound 8 µM) was 1.37, the relative viability (NCI-H1915; first compound 0.253 µM) was 1.07 and the relative viability (NCI-H1915; first compound 0.8 µM) was 1.03. It also gave a relative viability (NCI-H1915; first compound 2.53 µM) of 1.14, a relative viability (NCI-H1915; first compound 8 µM) of 1.14 and a relative viability (NCI-H1944; first compound 0.253 µM) of 0.871. The relative viability (NCI-H1944; first compound 0.8 µM) was 0.905, the relative viability (NCI-H1944; first compound 2.53 µM) was 0.911 and the relative viability (NCI-H1944; first compound 8 µM) was 0.848. The relative viability (NCI-H2009; first compound 0.253 µM) was 1.24, the relative viability (NCI-H2009; first compound 0.8 µM) was 1.23 and the relative viability (NCI-H2009; first compound 2.53 µM) was 1.32. For the same compound, the relative viability (NCI-H2009; first compound 8 µM) was 1.22, the relative viability (NCI-H2023; first compound 0.253 µM) was 0.89 and the relative viability (NCI-H2023; first compound 0.8 µM) was 1.19. For the same compound, the relative viability (NCI-H2023; first compound 2.53 µM) was 0.753, the relative viability (NCI-H2023; first compound 8 µM) was 0.931 and the relative viability (NCI-H596; first compound 0.253 µM) was 0.799. The relative viability (NCI-H596; first compound 2.53 µM) was 0.908, the relative viability (NCI-H596; first compound 8 µM) was 0.789 and the relative viability (NCI-H650; first compound 0.253 µM) was 1.02. It also gave a relative viability (NCI-H650; first compound 2.53 µM) of 1.14, a relative viability (NCI-H650; first compound 8 µM) of 1.01 and a relative viability (NCI-H661; first compound 0.253 µM) of 0.996. For the same compound, the relative viability (NCI-H661; first compound 0.8 µM) was 0.983, the relative viability (NCI-H661; first compound 2.53 µM) was 1.01 and the relative viability (NCI-H661; first compound 8 µM) was 0.994.
